Experimental data taken from ChEMBL document CHEMBL1153683, “Triply-convergent synthesis of two sets of homochiral cyclopent[a]indene carbacyclin analogs” (Bioorg Med Chem Lett, 1991).
pIC50: −log10 of the molar value.

Organism: Homo sapiens
Test: Compound was evaluated for the inhibition of collagen-induced platelet aggregation
Type: functional

| Structure (SMILES) | pIC50 |
| --- | --- |
| O=C(O)Cc1ccc2c(c1)[C@H]1C[C@@H](O)[C@H](C#C[C@@H](O)C3CCCCC3)[C@H]1C2 | 6.74 |
| O=C(O)Cc1ccc2c(c1)[C@H]1C[C@@H](O)[C@H](CC[C@@H](O)C3CCCCC3)[C@H]1C2 | 6.48 |
| O=C(O)CCc1ccc2c(c1)[C@H]1C[C@@H](O)[C@H](C#C[C@@H](O)C3CCCCC3)[C@H]1C2 | 6.48 |

Second part, the compound after the results:

| pIC50 | Structure (SMILES) |
| --- | --- |
| < 4.00 | O=C(O)CCc1ccc2c(c1)[C@H]1C[C@@H](O)[C@H](/C=C\[C@@H](O)C3CCCCC3)[C@H]1C2 |
| < 4.00 | O=C(O)Cc1ccc2c(c1)[C@H]1C[C@@H](O)[C@H](/C=C\[C@@H](O)C3CCCCC3)[C@H]1C2 |
| 5.66 | O=C(O)CCc1ccc2c(c1)[C@H]1C[C@@H](O)[C@H](CC[C@@H](O)C3CCCCC3)[C@H]1C2 |
